This is an account of results in ChEMBL document CHEMBL3421566 (J Med Chem, 2015).

Assay [1] addresses T1, 1-deoxy-D-xylulose 5-phosphate reductoisomerase (Mycobacterium tuberculosis) (UniProt P9WNS1).
T1 sequence (whole entry): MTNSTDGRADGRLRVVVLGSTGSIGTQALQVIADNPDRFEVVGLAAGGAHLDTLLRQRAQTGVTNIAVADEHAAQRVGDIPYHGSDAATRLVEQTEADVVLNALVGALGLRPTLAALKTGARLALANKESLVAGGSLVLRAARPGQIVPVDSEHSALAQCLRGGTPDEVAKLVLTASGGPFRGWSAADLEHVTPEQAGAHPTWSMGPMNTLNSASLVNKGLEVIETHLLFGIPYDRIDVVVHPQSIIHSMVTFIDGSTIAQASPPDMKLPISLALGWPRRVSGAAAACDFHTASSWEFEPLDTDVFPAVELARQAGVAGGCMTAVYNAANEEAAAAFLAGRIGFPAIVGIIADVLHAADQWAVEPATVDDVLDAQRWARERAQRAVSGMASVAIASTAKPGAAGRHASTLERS
Nature of the assay: Inhibition of recombinant Mycobacterium tuberculosis Dxr expressed in Escherichia coli BL21 CodonPlus (DE3)-RIL cells using DOXP as substrate assessed as NADPH oxidation at 100 uM by spectrophotometric analysis.

The target of assay [2] is T2, 1-deoxy-D-xylulose 5-phosphate reductoisomerase (Escherichia coli) (UniProt W8T2T2).
T2 sequence (whole entry): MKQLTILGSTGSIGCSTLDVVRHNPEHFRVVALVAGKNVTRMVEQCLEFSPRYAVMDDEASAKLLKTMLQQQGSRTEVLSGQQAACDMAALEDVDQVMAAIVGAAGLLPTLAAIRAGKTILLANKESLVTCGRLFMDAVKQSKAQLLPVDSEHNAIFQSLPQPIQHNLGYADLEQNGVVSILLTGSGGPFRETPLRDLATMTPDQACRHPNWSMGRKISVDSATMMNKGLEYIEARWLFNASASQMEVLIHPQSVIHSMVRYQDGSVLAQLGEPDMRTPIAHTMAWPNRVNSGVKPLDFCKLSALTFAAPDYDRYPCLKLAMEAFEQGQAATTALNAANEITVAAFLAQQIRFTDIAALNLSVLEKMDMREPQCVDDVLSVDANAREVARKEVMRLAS
Nature of the assay: Inhibition of recombinant Escherichia coli Dxr expressed in Escherichia coli BL21 CodonPlus (DE3)-RIL cells using DOXP as substrate assessed as NADPH oxidation at 100 uM preincubated for 5 mins with NADPH followed by substrate addition by spectrophotometric analysis.

Assay [3] can be described thus: Inhibition of recombinant Plasmodium falciparum Dxr expressed in Escherichia coli C43(DE3) using DOXP as substrate assessed as NADPH oxidation by spectrophotometric analysis.
The test system of assay [4] is Escherichia coli. Nature of the assay: Antibacterial activity against Escherichia coli ATCC 8739 by two-fold broth microdilution method. The format is functional.
In assay [5] the test system is Escherichia coli. Nature of the assay: Antibacterial activity against Escherichia coli ATCC 25922 by two-fold broth microdilution method. The format is functional.
Assay [6] relates to Escherichia coli. Nature of the assay: Antibacterial activity against Escherichia coli K-12 by two-fold broth microdilution method. The format is functional.
In assay [7] the test system is Mycolicibacterium smegmatis. Nature of the assay: Antibacterial activity against Mycobacterium smegmatis ATCC 607 after 24 to 48 hrs by two-fold broth microdilution method. The format is functional.
Assay [8] relates to Mycolicibacterium smegmatis. Nature of the assay: Antibacterial activity against Mycobacterium smegmatis ATCC 700084 after 24 to 48 hrs by two-fold broth microdilution method. The format is functional.
The subject of assay [9] is Plasmodium falciparum. Nature of the assay: Schizontocidal activity against Plasmodium falciparum K1 infected in human RBC after 72 hrs by Malstat reagent-based spectrophotometric analysis. The format is functional. Conditions: K1, 72 h.
The subject of assay [10] is Plasmodium falciparum. Nature of the assay: Inhibition of recombinant Plasmodium falciparum Dxr expressed in Escherichia coli C43(DE3) using DOXP as substrate assessed as NADPH oxidation at 100 uM by spectrophotometric analysis.
Assay [11] addresses T3, 1-deoxy-D-xylulose 5-phosphate reductoisomerase (Mycobacterium tuberculosis, UniProt P9WNS1).
T3 sequence (P9WNS1 whole entry): T1 sequence (whole entry)
Nature of the assay: Inhibition of recombinant Mycobacterium tuberculosis Dxr expressed in Escherichia coli BL21 CodonPlus (DE3)-RIL cells using DOXP as substrate assessed as NADPH oxidation by spectrophotometric analysis.

The target of assay [12] is T4, 1-deoxy-D-xylulose 5-phosphate reductoisomerase (Escherichia coli, UniProt W8T2T2).
T4 sequence (W8T2T2 whole entry): T2 sequence (whole entry)
Kind of assay: Inhibition of recombinant Escherichia coli Dxr expressed in Escherichia coli BL21 CodonPlus (DE3)-RIL cells using DOXP as substrate assessed as NADPH oxidation preincubated for 5 mins with NADPH followed by substrate addition by spectrophotometric analysis.

Structures are written as SMILES. pIC50: −log10 of the molar value. Values after ≈ are worked out from the molar mass of the structure shown. Active and inactive are the calls of the source. The calls are words filed in the database; no cut-off is given here.

As to `COc1ccc(C(CC(=O)N(C)O)CP(=O)(O)O)cc1` (centres undefined), the inhibition entry in [1] and in assay [2] was “inactive” each time. The pIC50 in assay [3] is 4.73. The MIC50 in the assay with Escherichia coli [4] was > 250 µM; with Escherichia coli [5] it was > 250 µM; against Escherichia coli [6] it was > 250 µM; in assay [7], > 250 µM; in assay [8], > 250 µM; with Plasmodium falciparum [9], > 64 µM.

Regarding `CN(O)C(=O)CC(Cc1ccccc1)CP(=O)(O)O` (centres undefined), the inhibition entry (in [2]; in the assay with Plasmodium falciparum [10]) was “Active” each time. The MIC50 against Plasmodium falciparum [9] was ≥ 56.8 µM.

As for `O=CN(O)CCCP(=O)(O)O` [FOSMIDOMYCIN], the pIC50 in assay [3] was 7.44. Also, the MIC50 is 0.98 µM (≈ 0.179 µg/mL) against Escherichia coli [4]; 250 µM (≈ 45.8 µg/mL) in the assay on Escherichia coli [5]; 7.8 µM (≈ 1.43 µg/mL) against Escherichia coli [6]; > 250 µM in assay [7]; > 250 µM in [8].

For the compound `Cc1ccc(C(CC(=O)N(C)O)CP(=O)(O)O)cc1` (centres undefined), the inhibition entry in assay [1] and in [2] was “inactive” throughout. The pIC50 in assay [3] is 5.03. Also, the MIC50 is > 250 µM against Escherichia coli [4]; > 250 µM in the assay on Escherichia coli [5]; > 250 µM in the assay with Escherichia coli [6]; > 250 µM in assay [7]; > 250 µM in assay [8]; > 64 µM against Plasmodium falciparum [9].

For `CN(O)C(=O)CC(CP(=O)(O)O)c1ccc(Cl)c(Cl)c1` (centres undefined), the inhibition entry in assay [1] and in [2] was “inactive” in each case. For the same compound, the MIC50 with Escherichia coli [4] was > 250 µM; against Escherichia coli [5], > 250 µM; in the assay on Escherichia coli [6] it was > 250 µM; in assay [7] it was > 250 µM; in assay [8], > 250 µM; against Plasmodium falciparum [9] it was > 64 µM.

As to `CC(CC(=O)N(C)O)CP(=O)(O)O` (centres undefined), the pIC50 in assay [11] is 6.69; in [12] it was 5.15. Moreover, the MIC50 in the assay with Plasmodium falciparum [9] was 0.74 µM (≈ 0.156 µg/mL).

`CN(O)C(=O)CC(CCCc1ccccc1)CP(=O)(O)O` (centres undefined): the pIC50 is 6.07 in [11], 4.99 in assay [12] and 6.93 in assay [3]. For the same compound, the MIC50 was > 250 µM against Escherichia coli [4]; > 250 µM in the assay on Escherichia coli [5]; > 250 µM in the assay on Escherichia coli [6]; > 250 µM in assay [7]; > 250 µM in assay [8]; 0.43 µM (≈ 0.136 µg/mL) against Plasmodium falciparum [9].

For the compound `CN(O)C(=O)CCCP(=O)(O)O`, the pIC50 is 6.80 in [11] and 5.94 in assay [12]. Besides, the MIC50 against Escherichia coli [4] is 31.2 µM (≈ 6.16 µg/mL); in the assay with Escherichia coli [5], 15.6 µM (≈ 3.08 µg/mL); in the assay with Escherichia coli [6], 31.2 µM (≈ 6.16 µg/mL); in assay [7], > 250 µM; in assay [8], > 250 µM; against Plasmodium falciparum [9], 0.26 µM (≈ 0.0513 µg/mL).

In the case of `CN(O)C(=O)CC(CP(=O)(O)O)c1ccc(Cl)cc1` (centres undefined), the inhibition result in [1] and in assay [2] was “inactive” throughout. The MIC50 against Escherichia coli [4] was > 250 µM; in the assay with Escherichia coli [5], > 250 µM; against Escherichia coli [6], > 250 µM; in [7], > 250 µM; in assay [8], > 250 µM; against Plasmodium falciparum [9] it was > 64 µM.

As for `CN(O)C(=O)CC(CCCCc1ccccc1)CP(=O)(O)O` (centres undefined), the results for the pIC50 in assay [11], in assay [12] and in [3] were 5.18, 3.56 and 7.16, respectively. In addition, the MIC50 in the assay on Escherichia coli [4] was > 250 µM; against Escherichia coli [5], > 250 µM; against Escherichia coli [6], > 250 µM; in [7] it was > 250 µM; in assay [8], > 250 µM; in the assay on Plasmodium falciparum [9], < 0.25 µM.

For the compound `CC(=O)N(O)CCCP(=O)(O)O` [FR-900098], the MIC50 in the assay with Escherichia coli [4] was 7.8 µM (≈ 1.54 µg/mL); in the assay with Escherichia coli [5], 62.5 µM (≈ 12.3 µg/mL); in the assay on Escherichia coli [6], 15.6 µM (≈ 3.08 µg/mL); in assay [7], > 250 µM; in [8], > 250 µM.

With `CN(O)C(=O)CC(CP(=O)(O)O)c1ccccc1` (centres undefined), the inhibition result in assay [1] and in assay [2] was “inactive” throughout. Besides, in [3], the pIC50 was 5.48. The MIC50 with Escherichia coli [4] is > 250 µM; against Escherichia coli [5] it was > 250 µM; against Escherichia coli [6], > 250 µM; in assay [7], > 250 µM; in assay [8], > 250 µM; with Plasmodium falciparum [9] it was > 64 µM.

Turning to `CN(O)C(=O)CC(CCc1ccccc1)CP(=O)(O)O` (centres undefined), the pIC50 in assay [11] is 4.50; in assay [3] it was 5.87. The MIC50 in the assay on Escherichia coli [4] is > 250 µM; against Escherichia coli [5], > 250 µM; with Escherichia coli [6] it was > 250 µM; in [7], > 250 µM; in assay [8] it was > 250 µM; against Plasmodium falciparum [9], 35.4 µM (≈ 10.7 µg/mL).
